Activity calls are given as the source filed them.
Tests used:
[1] = molecular target: Mitogen-activated protein kinase 10 (Homo sapiens, UniProt P53779); test: Dose response biochemical screening assay for inhibitors of c-Jun N-Terminal Kinase 3 (JNK3). [Related pubchem assays: 746 ]
Orexin receptor type 2 [2] = molecular target: T1, Orexin receptor type 2 (Homo sapiens, UniProt O43614); test: Counterscreen assay for antagonists of the orexin 1 receptor (OX1R; HCRTR1): Homogeneous Time Resolved Fluorescence (HTRF)-based cell-based dose response assay for antagonists of the orexin 2 receptor (OX2R; HCRTR2), run by assay provider.; assay type: functional
T1 sequence (O43614 whole entry): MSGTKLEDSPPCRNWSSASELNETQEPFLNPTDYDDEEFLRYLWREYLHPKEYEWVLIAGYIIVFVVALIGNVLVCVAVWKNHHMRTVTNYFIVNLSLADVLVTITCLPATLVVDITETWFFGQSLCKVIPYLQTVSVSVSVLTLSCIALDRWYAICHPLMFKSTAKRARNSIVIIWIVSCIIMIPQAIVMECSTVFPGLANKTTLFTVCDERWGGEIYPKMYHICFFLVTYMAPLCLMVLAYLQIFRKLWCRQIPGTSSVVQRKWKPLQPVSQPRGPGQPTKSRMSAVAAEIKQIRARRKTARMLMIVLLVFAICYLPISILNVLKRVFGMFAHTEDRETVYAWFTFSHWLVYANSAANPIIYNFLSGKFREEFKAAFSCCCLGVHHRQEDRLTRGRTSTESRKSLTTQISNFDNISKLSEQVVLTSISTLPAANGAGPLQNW

[3] = (§1) Counterscreen for antagonists of the orexin 1 receptor (OX1R; HCRTR1): Fluorescence-based cell-based high throughput dose response assay to identify antagonists of the parental CHO cell line. [Related pubchem assays (depositor defined):AID434989, AID435008, AID463079, AID485270, AID492963, AID492964, AID492965, AID493232, AID504699, AID504701]; assay type: functional
CHO-K1 = test: as §1, with “Homogeneous time resolved fluorescence (HTRF)-based” for “Fluorescence-based”, “cell-based” for “cell-based high throughput”, “CHO-K1” for “CHO”; assay type: functional; conditions: Cricetulus griseus;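 further: potency for inhibition of ATP-stimulated IP1 production as antagonists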
Orexin receptor type 2 [4] = molecular target: T1, Orexin receptor type 2; test: Counterscreen assay for antagonists of the orexin 1 receptor (OX1R; HCRTR1): Fluorescence-based cell-based dose response assay for antagonists of the orexin 2 receptor (OX2R; HCRTR2), run by assay provider.; assay type: functional
[5] = molecular target: T2, Orexin/Hypocretin receptor type 1 (Homo sapiens, UniProt O43613); test: (§2) Fluorescence-based cell-based high throughput dose response assay for antagonists of the orexin 1 receptor (OX1R; HCRTR1). [Related pubchem assays (depositor defined):AID434989, AID435008, AID463079, AID485270, AID492963, AID492964, AID492965, AID493232, AID504717, AID504718]; assay type: functional
T2 sequence (O43613 whole entry): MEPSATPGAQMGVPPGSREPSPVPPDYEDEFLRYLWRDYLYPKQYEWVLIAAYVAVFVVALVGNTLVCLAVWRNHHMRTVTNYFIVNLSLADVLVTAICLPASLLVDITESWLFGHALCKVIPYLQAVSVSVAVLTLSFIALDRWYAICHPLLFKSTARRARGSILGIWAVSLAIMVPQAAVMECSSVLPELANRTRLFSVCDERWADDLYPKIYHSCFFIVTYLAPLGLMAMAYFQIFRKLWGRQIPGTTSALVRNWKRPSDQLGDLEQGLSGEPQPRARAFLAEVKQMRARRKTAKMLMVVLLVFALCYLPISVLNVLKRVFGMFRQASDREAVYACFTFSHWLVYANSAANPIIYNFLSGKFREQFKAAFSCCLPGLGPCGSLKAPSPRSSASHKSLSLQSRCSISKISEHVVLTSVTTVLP

[6] = molecular target: T2, Orexin/Hypocretin receptor type 1; test: as §2, with “Homogeneous Time Resolved Fluorescence (HTRF)-based” for “Fluorescence-based”; assay type: functional
Insulin-degrading enzyme [7] = molecular target: T3, Insulin-degrading enzyme (Homo sapiens, UniProt P14735); test: activators of endogenous IDE in HEK cells, dose response, cell-based, fluorescence polarization (AID 588439); assay type: functional
T3 sequence (P14735 whole entry): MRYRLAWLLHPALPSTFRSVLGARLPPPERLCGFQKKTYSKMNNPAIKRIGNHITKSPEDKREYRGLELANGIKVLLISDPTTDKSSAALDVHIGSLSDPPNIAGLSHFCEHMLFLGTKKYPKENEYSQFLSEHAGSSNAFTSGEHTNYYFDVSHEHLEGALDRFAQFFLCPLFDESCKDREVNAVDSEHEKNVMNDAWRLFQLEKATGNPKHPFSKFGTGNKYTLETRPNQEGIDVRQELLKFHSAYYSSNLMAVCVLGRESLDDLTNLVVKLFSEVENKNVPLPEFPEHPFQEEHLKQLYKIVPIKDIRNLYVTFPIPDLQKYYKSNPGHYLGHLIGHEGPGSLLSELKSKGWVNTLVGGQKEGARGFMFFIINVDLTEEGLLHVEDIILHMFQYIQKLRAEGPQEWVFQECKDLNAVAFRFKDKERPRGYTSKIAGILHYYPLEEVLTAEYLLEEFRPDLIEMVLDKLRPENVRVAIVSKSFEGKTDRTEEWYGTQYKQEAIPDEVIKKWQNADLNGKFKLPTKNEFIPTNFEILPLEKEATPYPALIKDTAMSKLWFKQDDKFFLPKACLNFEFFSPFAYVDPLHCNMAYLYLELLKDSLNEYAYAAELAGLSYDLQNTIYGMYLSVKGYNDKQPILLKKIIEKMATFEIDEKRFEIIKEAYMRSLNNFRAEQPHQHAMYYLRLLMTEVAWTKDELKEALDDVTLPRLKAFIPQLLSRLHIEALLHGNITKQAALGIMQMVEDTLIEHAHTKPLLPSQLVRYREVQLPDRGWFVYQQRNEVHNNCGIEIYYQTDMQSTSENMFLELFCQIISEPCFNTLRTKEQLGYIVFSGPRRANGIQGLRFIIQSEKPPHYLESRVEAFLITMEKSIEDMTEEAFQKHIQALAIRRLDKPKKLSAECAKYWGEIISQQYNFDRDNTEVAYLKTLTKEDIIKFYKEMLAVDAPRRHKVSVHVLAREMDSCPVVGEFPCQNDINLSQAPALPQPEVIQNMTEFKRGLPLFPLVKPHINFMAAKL

HEK293 [8] = test: optical interference in Abeta FP readout, dose response, artefact control for IDE activator project, biochemical, fluorescence polarization (AID 588442); assay type: functional, cell-based; conditions: Homo sapiens
HEK293 [9] = test: HEK cell cytotoxicity by LDH release, dose response, cytotoxicity control for IDE activator project, fluorescence, HEK cells (AID 588440); assay type: functional, cell-based; conditions: Homo sapiens;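 further: cytotoxicity by LDH release measuring loss of membrane integrity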
Insulin-degrading enzyme [10] = molecular target: T3, Insulin-degrading enzyme; test: activators of recombinant IDE enzyme, dose response, counter-screen for IDE activator project, biochemical, fluorescence polarization (AID 588681)
[11] = nonselective inhibitors of cellular cAMP signaling, dose response, counter-screen for MC4R biased antagonist project, cell-based, TR-FRET cAMP detection (AID 602305); assay type: functional;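 further: U2OS cells stimulated with forskolin near its EC80 as the cAMP inducer; potency is for inhibition of forskolin-stimulated cAMP signaling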
Melanocortin receptor 4 = Melanocortin receptor 4 (Homo sapiens, UniProt P32245); test: MC4R antagonist potency on cAMP, dose response, cell-based, TR-FRET, biased antagonists (AID 602298); assay type: functional;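 further: antagonist potency against agonist-stimulated cAMP production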
Chain of Melanocortin receptor 4 (P32245 whole entry, the tested form may be a part): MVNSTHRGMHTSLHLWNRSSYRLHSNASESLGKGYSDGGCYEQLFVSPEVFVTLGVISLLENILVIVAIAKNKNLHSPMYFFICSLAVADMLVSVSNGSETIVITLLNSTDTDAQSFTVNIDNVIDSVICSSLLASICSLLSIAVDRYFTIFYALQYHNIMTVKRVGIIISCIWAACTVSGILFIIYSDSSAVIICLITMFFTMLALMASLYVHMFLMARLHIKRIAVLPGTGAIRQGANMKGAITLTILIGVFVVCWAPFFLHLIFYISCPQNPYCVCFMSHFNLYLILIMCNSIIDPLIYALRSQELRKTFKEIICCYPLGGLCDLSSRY

[12] = inhibitors of clade B AD8 Env fusion, dose response, cell-based, cherry-pick (AID 652062); assay type: functional;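 further: luciferase signal from cell-cell fusion driven by HIV-1 clade B AD8 Env; potency is for inhibitors of fusion seen as a drop in luminescence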
[13] = inhibitors of HIV Env-driven cell fusion, dose response, cherry-pick (AID 652057); assay type: functional, cell-based
[14] = molecular target: T4, Histone-lysine N-methyltransferase NSD2 (Homo sapiens, UniProt O96028); assay type: biochemical
T4 sequence (O96028 whole entry): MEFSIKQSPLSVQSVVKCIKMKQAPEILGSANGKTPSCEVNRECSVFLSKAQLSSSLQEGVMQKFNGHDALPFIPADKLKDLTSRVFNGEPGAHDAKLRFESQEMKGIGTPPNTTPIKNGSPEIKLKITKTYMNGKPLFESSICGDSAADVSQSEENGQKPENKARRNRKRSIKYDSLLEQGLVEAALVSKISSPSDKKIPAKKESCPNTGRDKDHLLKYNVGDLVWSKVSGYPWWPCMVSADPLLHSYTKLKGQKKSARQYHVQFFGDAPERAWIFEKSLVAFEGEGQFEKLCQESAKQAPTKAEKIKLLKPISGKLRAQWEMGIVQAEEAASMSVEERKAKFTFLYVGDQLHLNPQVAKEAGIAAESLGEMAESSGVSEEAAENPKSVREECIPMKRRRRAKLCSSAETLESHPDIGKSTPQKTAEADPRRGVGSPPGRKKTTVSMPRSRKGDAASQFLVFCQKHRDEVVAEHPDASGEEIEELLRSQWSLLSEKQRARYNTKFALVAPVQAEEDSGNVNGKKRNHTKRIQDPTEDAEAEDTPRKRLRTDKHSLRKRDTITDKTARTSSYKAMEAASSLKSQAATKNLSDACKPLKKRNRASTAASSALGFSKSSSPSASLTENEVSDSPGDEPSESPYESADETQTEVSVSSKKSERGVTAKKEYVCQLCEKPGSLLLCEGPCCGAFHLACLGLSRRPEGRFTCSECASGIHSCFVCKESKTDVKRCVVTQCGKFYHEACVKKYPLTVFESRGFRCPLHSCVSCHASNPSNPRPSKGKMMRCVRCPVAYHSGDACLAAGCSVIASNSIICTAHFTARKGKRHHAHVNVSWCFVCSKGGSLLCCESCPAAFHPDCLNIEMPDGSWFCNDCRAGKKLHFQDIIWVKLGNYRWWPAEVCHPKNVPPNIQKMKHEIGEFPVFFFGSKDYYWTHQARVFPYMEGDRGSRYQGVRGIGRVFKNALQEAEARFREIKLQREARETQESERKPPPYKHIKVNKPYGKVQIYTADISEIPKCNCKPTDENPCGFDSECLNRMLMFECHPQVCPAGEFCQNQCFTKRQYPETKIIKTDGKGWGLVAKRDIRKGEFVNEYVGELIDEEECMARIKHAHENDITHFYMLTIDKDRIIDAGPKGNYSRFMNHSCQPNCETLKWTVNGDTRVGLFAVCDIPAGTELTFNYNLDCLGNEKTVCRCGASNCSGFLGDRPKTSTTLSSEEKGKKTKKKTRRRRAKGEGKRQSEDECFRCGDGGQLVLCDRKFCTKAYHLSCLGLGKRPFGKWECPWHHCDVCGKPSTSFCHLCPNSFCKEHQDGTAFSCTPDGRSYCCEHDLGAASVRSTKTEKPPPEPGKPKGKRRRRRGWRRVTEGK

[15] = molecular target: Ras and Rab interactor 1/Tyrosine-protein kinase ABL1 (Homo sapiens, UniProt P00519+Q13671); assay type: functional;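 further: biochemical TR-FRET dose-response test measuring inhibition of binding between Rin1 and Abl proteins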
Chain of Ras and Rab interactor 1/Tyrosine-protein kinase ABL1 (P00519 whole entry): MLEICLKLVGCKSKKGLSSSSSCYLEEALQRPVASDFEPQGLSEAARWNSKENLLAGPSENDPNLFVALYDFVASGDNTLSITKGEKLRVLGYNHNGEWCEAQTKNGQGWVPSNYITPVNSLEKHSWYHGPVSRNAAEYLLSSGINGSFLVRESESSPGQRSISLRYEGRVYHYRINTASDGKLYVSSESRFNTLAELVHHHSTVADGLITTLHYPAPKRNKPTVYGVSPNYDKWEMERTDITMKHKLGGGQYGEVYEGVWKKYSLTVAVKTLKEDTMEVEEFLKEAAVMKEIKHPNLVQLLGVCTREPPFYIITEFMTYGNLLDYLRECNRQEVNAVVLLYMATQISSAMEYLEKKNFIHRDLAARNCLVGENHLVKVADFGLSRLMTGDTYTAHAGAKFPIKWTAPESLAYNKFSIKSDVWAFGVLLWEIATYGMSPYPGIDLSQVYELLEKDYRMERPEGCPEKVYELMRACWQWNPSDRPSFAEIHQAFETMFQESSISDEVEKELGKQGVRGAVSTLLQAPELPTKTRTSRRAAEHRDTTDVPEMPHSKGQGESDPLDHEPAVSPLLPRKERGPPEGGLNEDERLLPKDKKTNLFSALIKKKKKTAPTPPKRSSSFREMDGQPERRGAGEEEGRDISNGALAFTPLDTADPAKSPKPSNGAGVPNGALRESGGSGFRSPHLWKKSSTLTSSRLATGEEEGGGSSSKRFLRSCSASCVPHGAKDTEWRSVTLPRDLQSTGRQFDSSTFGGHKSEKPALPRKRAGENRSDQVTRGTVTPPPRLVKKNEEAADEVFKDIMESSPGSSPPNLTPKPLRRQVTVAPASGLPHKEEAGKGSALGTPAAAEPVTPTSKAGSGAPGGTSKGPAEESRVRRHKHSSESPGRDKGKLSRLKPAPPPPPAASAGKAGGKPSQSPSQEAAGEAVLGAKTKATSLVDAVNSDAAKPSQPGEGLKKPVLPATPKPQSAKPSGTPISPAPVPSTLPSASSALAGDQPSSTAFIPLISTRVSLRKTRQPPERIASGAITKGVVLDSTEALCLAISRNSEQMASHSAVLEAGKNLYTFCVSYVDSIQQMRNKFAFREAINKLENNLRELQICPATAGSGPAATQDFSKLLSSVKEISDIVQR
Chain of Ras and Rab interactor 1/Tyrosine-protein kinase ABL1 (Q13671 whole entry): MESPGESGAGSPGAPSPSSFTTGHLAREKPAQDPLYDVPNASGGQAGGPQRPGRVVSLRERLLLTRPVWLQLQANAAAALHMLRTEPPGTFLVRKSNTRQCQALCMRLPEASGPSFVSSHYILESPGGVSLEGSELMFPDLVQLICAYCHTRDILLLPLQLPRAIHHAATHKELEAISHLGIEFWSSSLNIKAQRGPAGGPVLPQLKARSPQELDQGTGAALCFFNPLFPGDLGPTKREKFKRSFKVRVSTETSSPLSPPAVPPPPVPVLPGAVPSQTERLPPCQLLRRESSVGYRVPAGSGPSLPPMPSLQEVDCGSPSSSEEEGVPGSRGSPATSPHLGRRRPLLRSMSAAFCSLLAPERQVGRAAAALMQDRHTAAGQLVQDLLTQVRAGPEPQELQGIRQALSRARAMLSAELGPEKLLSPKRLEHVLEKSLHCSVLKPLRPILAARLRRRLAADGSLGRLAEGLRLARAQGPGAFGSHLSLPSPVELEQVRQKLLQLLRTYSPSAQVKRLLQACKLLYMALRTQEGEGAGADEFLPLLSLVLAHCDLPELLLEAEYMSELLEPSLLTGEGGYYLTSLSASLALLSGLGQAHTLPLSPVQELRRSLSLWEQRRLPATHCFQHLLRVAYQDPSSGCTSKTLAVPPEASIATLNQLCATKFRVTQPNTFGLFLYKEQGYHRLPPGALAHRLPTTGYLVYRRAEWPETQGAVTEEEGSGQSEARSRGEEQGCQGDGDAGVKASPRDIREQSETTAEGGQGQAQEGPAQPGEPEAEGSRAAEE

Chain of Mitogen-activated protein kinase 10 (P53779 whole entry): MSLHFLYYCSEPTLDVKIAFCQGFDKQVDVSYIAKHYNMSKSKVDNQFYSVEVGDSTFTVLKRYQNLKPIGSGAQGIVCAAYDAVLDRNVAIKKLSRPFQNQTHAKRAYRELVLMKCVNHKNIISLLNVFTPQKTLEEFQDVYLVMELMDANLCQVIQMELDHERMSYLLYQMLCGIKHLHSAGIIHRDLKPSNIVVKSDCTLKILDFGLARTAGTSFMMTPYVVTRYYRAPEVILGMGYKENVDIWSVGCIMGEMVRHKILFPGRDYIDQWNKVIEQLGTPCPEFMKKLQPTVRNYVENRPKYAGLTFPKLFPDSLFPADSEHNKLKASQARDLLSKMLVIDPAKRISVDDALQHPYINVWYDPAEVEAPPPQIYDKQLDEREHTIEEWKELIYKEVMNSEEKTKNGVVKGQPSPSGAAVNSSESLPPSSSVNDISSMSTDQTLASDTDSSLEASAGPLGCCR

Question: Which results are given for CCn1c(C)cs/c1=N/C(=O)c1ccccc1O?
Answer: IC50 [1]: 40.7 µM (not active); IC50 (Orexin receptor type 2 [2]): > 50 µM (inactive); IC50 [3]: > 49.8 µM (inactive); IC50 (CHO-K1): > 66.3 µM (inactive); IC50 (Orexin receptor type 2 [4]): > 88.8 µM (inactive); IC50 [5]: 7.37 µM (active); IC50 [6]: 2.69 µM (active)

Question: For O=[N+]([O-])c1cccc(Cl)c1NCCNc1ncc(C(F)(F)F)cc1Cl, which EC50 (Insulin-degrading enzyme [7]) is on record?
Answer: > 54.7 µM (inactive)

Question: And the EC50 (HEK293 [8])?
Answer: > 54.7 µM (inactive)

Question: And the IC50 (HEK293 [9])?
Answer: > 89.2 µM (inactive)

Question: And the EC50 (Insulin-degrading enzyme [10])?
Answer: > 54.7 µM (inactive)

Question: For Cc1cc2nccc(-c3ccc(Cl)c([N+](=O)[O-])c3)n2n1, which IC50 [11] is on record?
Answer: > 64.6 µM (inactive)

Question: And the IC50 (Melanocortin receptor 4)?
Answer: > 64.6 µM (inactive)

Question: Which EC50 (Insulin-degrading enzyme [7]) does the source give for CC(=O)N1CCC(=O)Nc2ccc([N+](=O)[O-])cc21 here?
Answer: > 54.7 µM (inactive)

Question: What about the EC50 (HEK293 [8]) of the same compound?
Answer: > 54.7 µM (inactive)

Question: What about the IC50 (HEK293 [9]) of the same compound?
Answer: > 89.3 µM (inactive)

Question: What about the EC50 (Insulin-degrading enzyme [10]) of the same compound?
Answer: > 54.7 µM (inactive)

Question: Which IC50 (Orexin receptor type 2 [2]) does the source give for O=S(=O)(NC1CC1)c1ccc(S(=O)(=O)N2CCCc3ccccc32)cc1 here?
Answer: 6.62 µM (active)

Question: And the IC50 [3]?
Answer: 18.2 µM (inactive)

Question: And the IC50 (CHO-K1)?
Answer: > 66.2 µM (inactive)

Question: And the IC50 (Orexin receptor type 2 [4])?
Answer: > 88.8 µM (inactive)

Question: And the AC50 [12]?
Answer: 16.9 µM (active)

Question: And the IC50 [5]?
Answer: 6.07 µM (active)

Question: And the IC50 [6]?
Answer: 6.71 µM (active)

Question: And the AC50 [13]?
Answer: 28.3 µM (active)

Question: For CCOC(=O)CCCCC(=O)c1[nH]c(O)nc1CSc1nc(C)cc(O)n1, which AC50 [14] is on record?
Answer: 8.18 µM (active)

Question: What about the IC50 [15] of the same compound?
Answer: 0.192 µM (active)

Question: Which IC50 (Orexin receptor type 2 [2]) does the source give for COc1cccc(OP(=O)(Nc2ccccc2)Oc2cccc(OC)c2)c1 here?
Answer: > 50 µM (inactive)

Question: And the IC50 [3]?
Answer: > 49.7 µM (inactive)

Question: What about the IC50 (CHO-K1) of the same compound?
Answer: > 66.2 µM (inactive)

Question: What about the IC50 (Orexin receptor type 2 [4]) of the same compound?
Answer: > 88.8 µM (inactive)

Question: What about the IC50 [5] of the same compound?
Answer: 14.5 µM (inactive)

Question: What about the IC50 [6] of the same compound?
Answer: 9.26 µM (active)
